The record followed here is patent US8455240B2, “Use of thermophilic sulphate-reducing archaea for the implementation of a process for the degradation of hydrocarbons” (Institut de Recherche pour le Development (I.R.D.), priority 2005, dated 2013).

For assay [1], the system named is A. fulgidus. Nature of the assay: Subculture on hydrocarbons, A. fulgidus (sulphide production). The assay is classed as cell-based, Archaeoglobus fulgidus. As to conditions: for ΔS tf-ti: final minus initial sulphide. The method, then:
(§1) Experimentally, 4 ml of Cord-Ruwish reagent comprising 50 mmol/l of HCl and 5 mmol/l of CuSO4 are added to 0.1 ml of sample. Copper sulphate (CuSO4) by reacting with hydrogen sulphide (H2S), forms a copper sulphide precipitate (CuS) after the reaction: CuSO4+H2S→CuS+H2SO4
(§2) According to this method, the CuS is assayed by spectrophotometry at 480 nm. The readings are carried out against a blank constituted by 4 ml of Cord-Ruwish reagent.
(§3) A subculture was carried out starting from the preceding experiment on naphthalene, DBT solubilized as previously in HMN, and on HMN alone, for the two strains studied.
(§4) For this subculture, apart from the tests containing the hydrocarbon (DBT, naphthalene (Naph), […]), and seeded with the previously chosen inoculum, abiotic controls (negative controls) containing the substrate (hydrocarbon) but not inoculated were produced for the purpose of quantifying the sulphide production which could be due to chemical reactions between the different constituents of the medium. In these controls there was no development in the concentration of sulphide over a period of 20 days (Table 4).

Assay [2] concerns Archaeoglobus fulgidus (collection strain). The assay is described as follows: Quantitative study of the degradation of hydrocarbons (DBT, HMN), collection strain. The assay is classed as cell-based. The method, then: Experiments were carried out in order to establish the stoichiometric equation of the degradation of hydrocarbons in the case of the collection strain only. Thus, the hydrocarbon concentrations were assayed at the initial and final time, like the thiosulphate concentrations. Moreover, the increase in the biomass was followed by the increase in the microbial population based on the most probable number method (MPN).
In order to be able to quantify the hydrocarbons with precision, the thick rubber stoppers were covered with a Teflon film, an inert substance which avoids any loss of the hydrocarbon by absorption or adsorption.
The hydrocarbons were added at a rate of: • for the DBT: 10 mg of DBT dissolved in 0.5 ml of HMN, 0.5 ml of this solution is added to the tests; • for the HMN: 6 μl of HMN/10 ml of culture medium.
The tests prepared are inoculated with the preceding subculture.

Assay [3] deals with A. fulgidus. Nature of the assay: Complementary experiment: sulphate as electron acceptor instead of thiosulphate. The assay is classed as cell-based, Archaeoglobus fulgidus. The procedure:
A first experiment was carried out with A. fulgidus for the purpose of studying the effect of sulphate as an electron acceptor instead of the thiosulphate used previously. […] This explains that at the bottom of the oceans where sulphate is abundant relative to thiosulphate which is in the minority, the phenomenon of DBT or HMN degradation cannot occur spontaneously.

The subject of a further assay is Archaeoglobus fulgidus. Nature of the assay: Screening for hydrocarbon degradation, A. fulgidus (sulphide production, Cord-Ruwish). Format: cell-based. The method, then: as §1, §2
(§5) The study of the hydrocarbon degradation abilities is an experiment which requires a particularly long incubation. Thus, it was carried out in Bellco tubes sealed with thick rubber stoppers.
(§6) For these experiments, tubes containing 10 ml of culture medium without substrate, are 10% inoculated, then the hydrocarbon is introduced by injection through the stopper.
(§7) The hydrocarbons chosen are model molecules belonging to the different classes of hydrocarbons, namely: • hexadecane (CH3(CH2)14CH3, C16), a saturated linear aliphatic hydrocarbon; • hexadecene (CH3(CH2)13CHCH2, C16:1), an unsaturated linear aliphatic hydrocarbon of biogenic origin; • dibenzothiophene (DBT, C12H8S), a sulphur-containing aromatic hydrocarbon.
(§8) The aliphatic hydrocarbons (C16; C16:1) are added to the corresponding tubes, at a rate of 0.04 ml/10 ml of culture medium. The aromatic hydrocarbons (DBT) are solubilized in 2,2,4,4,6,8,8-heptamethylnonane (HMN, C16H34) at a rate of 20 mg/ml of HMN, and 0.75 ml of this solution is injected into 10 ml of culture medium.
(§9) 3 tubes were produced for each test and control. The growth of the strains was monitored indirectly by the production of sulphide.
as §3

Assay [4] concerns strain L-3. The assay is described as follows: Subculture on hydrocarbons, strain L-3 (sulphide production). The assay is classed as cell-based, Archaeoglobus fulgidus CNCM I-3465 (strain L-3). The procedure:
as §1, §2, §3, §4

For assay [5], the system named is strain L-3. The assay is described as follows: Screening for hydrocarbon degradation, strain L-3 (sulphide production, Cord-Ruwish). Format: cell-based, Archaeoglobus fulgidus CNCM I-3465 (strain L-3). As to conditions: for Count / OD 580 / H2S: choice of the inoculum for the subculture; for H2S: tubes of the screening; for ΔS tf-ti: final minus initial sulphide. The method, then:
as §1, §2, §5, §6, §7, §8, §9, §3

Assay [6] relates to Archaeoglobus fulgidus DSM 4304. The assay is described as follows: Monitoring of thiosulphate during the degradation of fatty acids by A. fulgidus. The assay is classed as cell-based. As to conditions: E1/E2 replicates; for thiosulphate, time 0: time 0 (Jul. 4, 2005), butyrate, valerate 5 mM, others 2 mM. The procedure:
(§10) The thiosulphate and sulphate assays are carried out by ion chromatography.
(§11) The analyses are carried out with a chromatograph (Compact IC 761, Metrohm) equipped with: • A […] ion-exchange column (Metrosep A SUPP 1-250 (6.1005.300)), size 4.6*250 mm; • The eluent used is Na2CO3 at a concentration of 3 mmol/l, at a flow rate of 1 to 2.5 ml/min; ((→the flow rate varies during the analysis)) • A sample processor (Metrohm 838); • A conductimeter; • A computer where the results are recorded, integrated and analyzed by software (761 Compact IC, Metrohm). III.3.2. Operating Method
(§12) The operating conditions are such that the temperature is 20° C. and the pressure is 5 MPa. The samples to be analyzed are filtered. The injection volume is 20 μl. The detection is of conductimetric electrochemical type with chemical suppression allowing elution gradients.
(§13) Monitoring of thiosulphate during the degradation of fatty acids by A. fulgidus and by L-3

Assay [7] concerns strain L-3. Nature of the assay: Monitoring of thiosulphate during the degradation of fatty acids by L-3. The following applies: E1/E2 replicates; for thiosulphate, time 0: time 0 (Feb. 5, 2005). The assay is classed as cell-based, Archaeoglobus fulgidus CNCM I-3465 (strain L-3). The method, then:
as §10, §11, §12, §13

The mark [8] stands for this setting: choice of the inoculum for the subculture.

“And” between values parts separate entries of the source, which are not always exact repeats. Equal values may be shown once. Marks after values point to notes of the source that are not given here. Where only a bound is given, the exact number is not on record here.

As to `c1ccc2c(c1)sc1ccccc12` [DBT, dibenzothiophene], the “sulphide production (OD 480) 0 d” value in the assay with A. fulgidus [1] (0 d) is 0.2 mM and 0.1 mM. Further, in the assay on A. fulgidus [1], the “sulphide production (OD 480) 8 d” value was 1.3 mM and 1.1 mM and 1.2 mM; the ΔS tf-ti is 3 mM and 3.1 mM and 3.2 mM. Further, the “sulphide production (OD 480) 22 d” value in the assay on A. fulgidus [1] (22 d) is 2.1 mM and 1.9 mM. The “sulphide assay at the end of 75 days” value in assay [2] is given as “approximately 9.5 mM”. For the same compound, in the assay on A. fulgidus [3], the “microbial growth with sulphate as electron acceptor” value was “no microbial growth”. For the same compound, in the assay with Archaeoglobus fulgidus (0 d, aromatics solubilized in HMN), the “sulphide production (OD 480) 0 d” value was 0.4 mM and 0.3 mM and 0.5 mM. In the assay with Archaeoglobus fulgidus, the “sulphide production (OD 480) 10 d” value was 0.6 mM and 0.8 mM and 0.7 mM; the “sulphide production (OD 480) 45 d” value was 1.1 mM and 1.3 mM; the “sulphide production (OD 480) 60 d” value was 1.1 mM and 1.7 mM and 1.5 mM. In the assay on Archaeoglobus fulgidus (45 days), the “sulphide value in the hydrocarbon screening stage (ΔS45d, Table 1)” value is on record as at most 1 mM. In addition, in the assay on Archaeoglobus fulgidus (setting [8]), the Count is 9.4*10^7 Cells/ml and 8.33*10^7 Cells/ml and 7.22*10^7 Cells/ml; the “OD 580” value was 0.9801 and 1.424 and 0.9189. In addition, in the assay with strain L-3 [4], the “sulphide production (OD 480) 0 d” value was 0.3 mM and 0.2 mM; the “sulphide production (OD 480) 8 d” value is 0.6 mM and 0.4 mM; the “sulphide production (OD 480) 22 d” value was 1.1 mM and 1 mM and 0.8 mM. Further, the “sulphide production (OD 480) 45 d” value in the assay on strain L-3 [4] (45 d) is 2 mM and 1.1 mM and 1 mM. Besides, in the assay with strain L-3 [5], the “sulphide production (OD 480) 45 d” value is 1 mM and 1.2 mM and 1.4 mM; the “sulphide production (OD 480) 70 d” value was 0.9 mM and 1.2 mM and 1.4 mM; the Count is 8.17*10^7 Cells/ml and 6.55*10^7 Cells/ml; the “OD 580” value is 0.2284 and 0.3479. In addition, in the assay on strain L-3 [5], the H2S is 0.9 mM and 1.2 mM; the ΔS tf-ti was 0.8 mM and 1.2 mM and 1.5 mM. Moreover, the “sulphide production (OD 480) 60 d” value with strain L-3 [5] (60 d) was 0.6 mM and 0.7 mM and 1.1 mM.
Regarding `CC(CC(C)(C)C)CC(C)(C)CC(C)(C)C` (stereo not shown) [HMN, 2,2,4,4,6,8,8-heptamethylnonane], in the assay on A. fulgidus [1], the “sulphide production during the subculture, on average” value was found to be 1.8 mM; the “sulphide production (OD 480) 8 d” value is 0.6 mM and 1 mM and 0.7 mM; the ΔS tf-ti is 1.4 mM and 2.5 mM and 1.5 mM. Also, in the assay on A. fulgidus [1] (45 d), the “sulphide production (OD 480) 45 d” value was 2 mM and 3.5 mM and 2.2 mM. The “sulphide assay at the end of 75 days” value in assay [2] is “approximately 6 mM”. For the same compound, the “Sulphide (mM)(480 nM)” value in assay [2] (after 7 weeks of incubation, with yeast extract (EL)) was determined as 1.3 mM. In addition, the “microbial growth with sulphate as electron acceptor” value in the assay with A. fulgidus [3] is listed as “no microbial growth”. Further, in the assay on Archaeoglobus fulgidus, the “sulphide production (OD 480) 10 d” value was 0.8 mM and 1 mM; the “sulphide production (OD 480) 45 d” value is 0.8 mM and 1.1 mM; the “sulphide production (OD 480) 60 d” value was 0.9 mM and 0.7 mM and 1.3 mM. The “sulphide production (OD 480) 70 d” value with Archaeoglobus fulgidus (70 d) is 1.3 mM and 0.9 mM and 1.2 mM. In addition, the H2S in the assay with Archaeoglobus fulgidus (choice of the inoculum for the subculture, tubes of the screening) was 1.3 mM and 0.9 mM and 1.2 mM. Further, in the assay on strain L-3 [4], the “sulphide production (OD 480) 0 d” value is 0.3 mM and 0.2 mM; the “sulphide production (OD 480) 8 d” value is 0.6 mM and 0.5 mM and 0.4 mM; the “sulphide production (OD 480) 22 d” value was 1 mM and 0.9 mM and 0.6 mM. Besides, in the assay on strain L-3 [5], the “sulphide production (OD 480) 45 d” value is 0.7 mM and 0.9 mM; the “sulphide production (OD 480) 70 d” value was 1 mM and 1.4 mM and 1.9 mM; the Count was 6.08*10^7 Cells/ml; the “OD 580” value is 0.5921 and 0.6696. Moreover, in the assay on strain L-3 [5], the H2S was 1 mM and 1.4 mM and 2 mM; the ΔS tf-ti is 1 mM and 1.4 mM and 2 mM.
Turning to `CCCC(=O)O` [butyrate], in assay [6], the “thiosulphate, end of May 2005” value came out at 9.29 mM and the “thiosulphate, time 0” value was found to be 12.51 mM. In addition, the “thiosulphate, time 0” value in the assay on strain L-3 [7] stood at 15.45 mM.
Turning to `CCCCCCCCC(=O)O` [nonanoate], the “thiosulphate, end of May 2005” value in assay [6] (listed as C9 fatty acid) is 7.65 mM and 10.52 mM.
Consider `CCCCCCCC(=O)O` [octanoate], for which the “thiosulphate, end of May 2005” value is 8.2 mM and 9.27 mM in assay [6] (listed as C8 fatty acid); 9.56 and mM and 9.33 mM in the assay on strain L-3 [7] (end of May 2005, listed as C8 fatty acid).
In the case of `CCCCCCCCCCCCCCCC(=O)O` [palmitate], in assay [6], the “thiosulphate, end of May 2005” value is given as 9.12 mM and the “thiosulphate, time 0” value was determined as 11.54 mM. In the assay on strain L-3 [7], the “thiosulphate, time 0” value is listed as 15.52 mM.
Take `CCCCCCCCCCCCCCCCCC(=O)O` [stearate]: the “thiosulphate, end of May 2005” value in assay [6] (listed as C18 fatty acid) was 10.55 mM and 7.05 mM. In addition, in the assay with strain L-3 [7], the “thiosulphate, time 0” value is on record as 14.64* mM.
As to `CCCCC(=O)O` [valerate], in assay [6] (listed as C5 fatty acid), the “thiosulphate, end of May 2005” value was 11.86 mM and 9.39 mM. For the same compound, the “thiosulphate, time 0” value in the assay on strain L-3 [7] is reported as 13.95* mM.
